What follows are compounds tested against T1, autotaxin (ATX) (Homo sapiens, UniProt Q13822) (assay: Native Autotaxin Choline Release Assay). Conditions: autotaxin in conditioned medium from human melanoma cell line; choline released from LPC; read-out: MDA-MB-435S Assay IC50.
T1 construct: conditioned medium from the human melanoma cell line, MDA-MB-4355, which endogenously expresses autotaxin; host or cells: MDA-MB-435S human melanoma cells; serum-free conditioned medium, concentrated 20-fold
Type: biochemical
Description: ATX activity is determined by measuring the amount of choline realeased from the substrate, lyosphophatidylcholine (LPC). […] After reaching confluency, the cells are washed twice with phosphate-buffered saline (PBS) then cultured for 48 hours in phenol-red free, serum-free DMEM containing sodium pyruvate. […] 100 μl of a color mix which contains 4.5 mM 4-aminoantipyrine, 2.7 mM N-ethyl-N-(2-hydroxy-3-sulfopropyl)-m-toluidine, 21 units/ml horseradish peroxidase and 3 units/ml choline oxidase in 50 mM Tris, pH 8, 4.5 mM MgCl2 is added and the incubation continued at 37° C. for 10 minutes before reading the absorbance at 555 nm. The concentration of released choline in the sample is determined from a choline standard curve and is equal to the concentration of LPA produced.

IC50 [nM] | SMILES
> 1000 | O=C(O)c1cccc(Sc2c(C(F)(F)F)[nH]c3cc(Cl)ccc23)c1 [Compound 3-7, 3-(6-Chloro-2-trifluoromethyl-1H-indol-3-ylsulfanyl)-benzoic acid]
< 300 | Cc1cncc(-n2c(C)c(Sc3cccc(C(=O)O)c3)c3ccc(Cl)c(F)c32)c1 [Compound 3-22, 3-[6-Chloro-7-fluoro-2-methyl-1-(5-methyl-pyridin-3-yl)-1H-indol-3-ylsulfanyl]-benzoic acid]
< 300 | CCCn1cc(-n2c(C)c(Sc3cccc(C(=O)O)c3F)c3ccc(Cl)c(F)c32)cn1 [Compound 4-4, 3-[6-Chloro-7-fluoro-2-methyl-1-(1-propyl-1H-pyrazol-4-yl)-1H-indol-3-ylsulfanyl]-2-fluoro-benzoic acid]
< 300 | CCn1cc(-n2c(C)c(Sc3cccc(CC(=O)O)c3)c3ccc(Cl)c(F)c32)cn1 [Compound 3-28, {3-[6-Chloro-1-(1-ethyl-1H-pyrazol-4-yl)-7-fluoro-2-methyl-1H-indol-3-ylsulfanyl]-phenyl}-acetic acid]
< 300 | Cc1c(Sc2cccc(C(=O)O)c2)c2ccc(Cl)c(F)c2n1-c1cnn(CC2CC2)c1 [Compound 3-34, 3-[6-Chloro-1-(1-cyclopropylmethyl-1H-pyrazol-4-yl)-7-fluoro-2-methyl-1H-indol-3-ylsulfanyl]-benzoic acid]
> 1000 | Cc1c(Sc2cccc(CC(=O)O)c2)c2cc(Cl)ccc2n1C [Compound 3-12, [3-(5-Chloro-1,2-dimethyl-1H-indol-3-ylsulfanyl)-phenyl]-acetic acid]
< 300 | COc1c(Sc2c(C)n(-c3cnn(C)c3)c3cc(Cl)ccc23)cccc1C(=O)O [Compound 1-61, 3-[6-Chloro-2-methyl-1-(1-methyl-1H-pyrazol-4-yl)-1H-indol-3-ylsulfanyl]-2-methoxy-benzoic acid]
< 300 | CCCn1cc(-n2c(C)c(Sc3ccc(OC)c(C(=O)O)c3)c3ccc(Cl)c(F)c32)cn1 [Compound 4-10, 5-[6-Chloro-7-fluoro-2-methyl-1-(1-propyl-1H-pyrazol-4-yl)-1H-indol-3-ylsulfanyl]-2-methoxy-benzoic acid]
< 300 | Cc1c(Sc2cccc(C(=O)O)c2)c2ccc(Cl)c(F)c2n1-c1cnn(C2CC2)c1 [Compound 3-47, 3-[6-Chloro-1-(1-cyclopropyl-1H-pyrazol-4-yl)-7-fluoro-2-methyl-1H-indol-3-ylsulfanyl]-benzoic acid]
300 to 1000 | O=C(O)c1cccc(Sc2cn(Cc3ccccc3)c3cc(Cl)ccc23)c1 [Compound 3-17, 3-(1-Benzyl-6-chloro-1H-indol-3-ylsulfanyl)-benzoic acid]
< 300 | Cc1c(Sc2cccc(C(=O)O)c2)c2ccc(Cl)c(F)c2n1-c1cnn(C(C)C)c1 [Compound 3-56, 3-[6-Chloro-7-fluoro-1-(1-isopropyl-1H-pyrazol-4-yl)-2-methyl-1H-indol-3-ylsulfanyl]-benzoic acid]
> 1000 | Cc1[nH]c2ccc(Cl)cc2c1Sc1cccc(CC(=O)O)c1 [Compound 3-3, [3-(5-Chloro-2-methyl-1H-indol-3-ylsulfanyl)-phenyl]-acetic acid]
> 1000 | Cc1c(Oc2cccc(CC#N)c2)c2ccc(Cl)cc2n1Cc1ccccc1 [Compound 2-5, [3-(1-Benzyl-6-chloro-2-methyl-1H-indol-3-yloxy)-phenyl]-acetonitrile]
< 300 | CCCn1cc(-n2c(C)c(Sc3cc(F)cc(C(=O)O)c3)c3ccc(Cl)c(F)c32)cn1 [Compound 4-5, 3-[6-Chloro-7-fluoro-2-methyl-1-(1-propyl-1H-pyrazol-4-yl)-1H-indol-3-ylsulfanyl]-5-fluoro-benzoic acid]
300 to 1000 | Cc1c(Sc2cccc(C(=O)O)c2)c2ccc(Cl)cc2n1-c1ccc(C(F)(F)F)nc1 [Compound 1-32, 3-[6-Chloro-2-methyl-1-(6-trifluoromethyl-pyridin-3-yl)-1H-indol-3-ylsulfanyl]-benzoic acid]
< 300 | COc1c(C)cnc(Cn2c(C)c(Sc3cccc(C(=O)O)c3)c3ccc(Cl)cc32)c1C [Compound 1-25, 3-[6-Chloro-1-(4-methoxy-3,5-dimethyl-pyridin-2-ylmethyl)-2-methyl-1H-indol-3-ylsulfanyl]-benzoic acid]
< 300 | CCn1cc(-n2c(C)c(Sc3cccc(C(=O)NS(=O)(=O)c4ccccc4)c3F)c3ccc(Cl)c(F)c32)cn1 [Compound 4-7, N-{3-[6-Chloro-1-(1-ethyl-1H-pyrazol-4-yl)-7-fluoro-2-methyl-1H-indol-3-ylsulfanyl]-2-fluoro-benzoyl}-benzenesulfonamide]
< 300 | Cc1ccc(-n2cc(-n3c(C)c(Sc4cccc(C(=O)O)c4)c4ccc(Cl)cc43)cn2)cc1 [Compound 1-130, 3-[6-Chloro-2-methyl-1-(1-p-tolyl-1H-pyrazol-4-yl)-1H-indol-3-ylsulfanyl]-benzoic acid]
< 300 | CCCn1cc(-n2c(C)c(Sc3cccc(CC(=O)O)c3)c3ccc(Cl)cc32)cn1 [Compound 1-70, {3-[6-Chloro-1-(1-propyl-1H-pyrazol-4-yl)-2-methyl-1H-indol-3-ylsulfanyl]-phenyl}-acetic acid]

IC50 [nM] | SMILES
< 300 | Cc1cncc(-n2c(C)c(Sc3cccc(C(=O)O)c3F)c3ccc(Cl)cc32)c1 [Compound 1-66, 3-[6-Chloro-2-methyl-1-(5-methyl-pyridin-3-yl)-1H-indol-3-ylsulfanyl]-2-fluoro-benzoic acid]
< 300 | CCc1cncc(-n2c(C)c(Sc3cccc(C(=O)O)c3F)c3ccc(Cl)cc32)c1 [Compound 1-73, 3-[6-Chloro-1-(5-ethyl-pyridin-3-yl)-2-methyl-1H-indol-3-ylsulfanyl]-2-fluoro-benzoic acid]
< 300 | Cc1cncc(-n2c(C)c(Sc3cccc(C(=O)O)c3C)c3ccc(Cl)cc32)c1 [Compound 1-65, 3-[6-Chloro-2-methyl-1-(5-methyl-pyridin-3-yl)-1H-indol-3-ylsulfanyl]-2-methyl-benzoic acid]
> 1000 | Cc1c(Sc2cccc(C(=O)O)c2)c2ccc(Cl)cc2n1C(C)c1ccccc1 (stereo not shown) [Compound 1-19, 3-[6-Chloro-2-methyl-1-(1-phenyl-ethyl)-1H-indol-3-ylsulfanyl]-benzoic acid]
300 to 1000 | O=C(O)c1cccc(Sc2cn(-c3cccnc3)c3cc(Cl)ccc23)c1 [Compound 3-19, 3-(6-Chloro-1-pyridin-3-yl-1H-indol-3-ylsulfanyl)-benzoic acid]
> 1000 | Cc1c(Oc2cccc(Cc3nn[nH]n3)c2)c2ccc(Cl)cc2n1Cc1ccccc1 [Compound 2-6, 1-Benzyl-6-chloro-2-methyl-3-[3-(2H-tetrazol-5-ylmethyl)-phenoxy]-1H-indole]
300 to 1000 | CCn1ccc(-n2c(C)c(Sc3cccc(C(=O)O)c3)c3ccc(Cl)c(F)c32)n1 [Compound 3-58, 3-[6-Chloro-1-(1-ethyl-1H-pyrazol-3-yl)-7-fluoro-2-methyl-1H-indol-3-ylsulfanyl]-benzoic acid]
< 300 | CCn1cc(-n2c(C)c(Sc3cccc(C(=O)O)c3OC)c3ccc(Cl)cc32)cn1 [Compound 1-62, 3-[6-Chloro-2-methyl-1-(1-ethyl-1H-pyrazol-4-yl)-1H-indol-3-ylsulfanyl]-2-methoxy-benzoic acid]
< 300 | CCn1cc(-n2c(C)c(Sc3ccc(C)c(C(=O)O)c3)c3ccc(Cl)cc32)cn1 [Compound 1-132, 5-[6-Chloro-1-(1-ethyl-1H-pyrazol-4-yl)-2-methyl-1H-indol-3-ylsulfanyl]-2-methyl-benzoic acid]
> 1000 | Cc1c(Sc2cccc(C(=O)O)c2)c2ccc(-c3cccnc3)cc2n1Cc1ccccc1 [Compound 1-12, 3-(1-Benzyl-2-methyl-6-pyridin-3-yl-1H-indol-3-ylsulfanyl)-benzoic acid]
> 1000 | Cc1c(Sc2ccccc2CC(=O)O)c2ccc(Cl)cc2n1C [Compound 3-10, [2-(6-Chloro-1,2-dimethyl-1H-indol-3-ylsulfanyl)-phenyl]-acetic acid]
300 to 1000 | Cc1c(Sc2cccc(C(=O)O)c2)c2ccc(Cl)cc2n1Cc1ccccn1 [Compound 1-24, 3-(6-Chloro-2-methyl-1-pyridin-2-ylmethyl-1H-indol-3-ylsulfanyl)-benzoic acid]
< 300 | Cc1c(Sc2cccc(C(=O)O)c2)c2ccc(Cl)cc2n1-c1cnn(C)c1 [Compound 1-39, 3-[6-Chloro-2-methyl-1-(1-methyl-1H-pyrazol-4-yl)-1H-indol-3-ylsulfanyl]-benzoic acid]
> 1000 | Cc1[nH]c2c(Cl)cccc2c1Sc1cccc(CC(=O)O)c1 [Compound 3-4, [3-(7-Chloro-2-methyl-1H-indol-3-ylsulfanyl)-phenyl]-acetic acid]
< 300 | Cc1c(Sc2cccc(C(=O)O)c2)c2ccc(Cl)cc2n1-c1cnn(Cc2ccccc2)c1 [Compound 1-59, 3-[1-(1-Benzyl-1H-pyrazol-4-yl)-6-chloro-2-methyl-1H-indol-3-ylsulfanyl]-benzoic acid]
< 300 | Cc1c(Sc2cccc(C(=O)O)c2)c2ccc(Cl)cc2n1-c1cncnc1 [Compound 1-38, 3-(6-Chloro-2-methyl-1-pyrimidin-5-yl-1H-indol-3-ylsulfanyl)-benzoic acid]
< 300 | Cc1c(Sc2cccc(C(=O)O)c2)c2ccc(Cl)cc2n1-c1cccnc1 [Compound 1-30, 3-(6-Chloro-2-methyl-1-pyridin-3-yl-1H-indol-3-ylsulfanyl)-benzoic acid]
< 300 | CCCn1cc(-n2c(C)c(Sc3cccc(C(=O)O)c3)c3ccc(Cl)cc32)cn1 [Compound 1-57, 3-[6-Chloro-2-methyl-1-(1-propyl-1H-pyrazol-4-yl)-1H-indol-3-ylsulfanyl]-benzoic acid]
